Assay results: patent US4877734A, “Microbiologically produced α-acetylamino cinnamic acid acylase, method of its production and its use” (Degussa Aktiengesellschaft and Gesellschaft fur …, priority 1986, dated 1989)
≈ marks a conversion by molar mass, not a printed value. Blank lines part the entries; values can stand above or below the compound they belong to.

Assays:
ACA acylase [1] = test: Substrate specificity, test 3: peptides and N-acyl phenylalanines, amino acids detected with amino acid analyzer; assay type: biochemical, Brevibacterium spec.; settings: for Activity / Relative Activity: 50 mM substrate, pH 7.5, 30° C.; for Activity: 0.1 U/ml ACA acylase; for Relative Activity: relative to α-acetylamino cinnamic acid = 100%
Method: Other substrates used were N-acetyl-L-phenylalanine, N-methoxycarbonyl-D,L-phenylalanine and various peptides. The test batch contained in these instances:
0.1 M potassium phosphate buffer (pH 7.5)
(§1) The batches (1 ml altogether) were agitated (30° C.) and samples were taken at different times. The amino acids produced by the acylase action were quantitatively detected with the aid of an amino acid analyzer. The activity of the enzymes is also indicated in this instance in international units-an activity of 1 U corresponds to the formation of 1 μmole amino acid per minute. The activities measured with the 3 test batches are listed in column 2 of Table 6 in mU/ml. For the determination of the relative activity (column 3 of Table 6), the activity of the α-acetylamino cinnamic acid as substrate was set equal to 100%.

ACA acylase [2] = test: Influences of inhibitors and activators on ACA acylase activity (standard conditions, coupled test with D-2-hydroxy-4-methylpentanoic acid dehydrogenase); assay type: biochemical, Brevibacterium spec.
Method: 0.1 M phosphate buffer for pH 7.5
(§2) limiting amounts of ACA acylase.
(Deviation: The tests with bivalent metal ions were performed in 0.1M tris/HCl buffer for pH 8.0.)

[3] = at 25° C.; cited from earlier work
ACA acylase [4] = test: Substrate specificity, test 2: α-acetylamino acrylic acid, photometric test coupled with L-alanine dehydrogenase; assay type: biochemical, Brevibacterium spec.
Method: 2. Test with α-acetylamino acrylic acid:
50 mM α-acetyl amino acrylic acid
1 U/ml L--alanine dehydrogenase
The activity was measured in an analogous manner (by a photometric test at 340 nm) (1 μmole NADH decrease would correspond to 1 μmole formation of alanine).
as §1

ACA acylase [5] = test: Substrate specificity, test 1: α-acetylamino cinnamic acid, photometric test coupled with L-phenylalanine dehydrogenase; assay type: biochemical, Brevibacterium spec.
Method: In a series of parallel batches, the substrate α-acetylamino cinnamic acid was replaced by other compounds and tested to see to what extent the enzyme accepts other substrates. The following test batches were used depending on the substrate used:
1. Test with α-acetylamino cinnamic acid as substrate:
50 mM α-acetylamino cinnamic acid
The activity was measured (at 340 nm) by a photometric test as described in Example 1.
as §1

ACA acylase [6] = test: Dependency of ACA acylase activity on substrate concentration, coupled with L-phenylalanine dehydrogenase (pH 8.5); assay type: biochemical, Brevibacterium spec.
Method: 0.7 mM ammonium chloride/ammonia buffer (pH 8.5)
0.5 U L--phenylalanine dehydrogenase
as §2
The α-acetylamino cinnamic acid concentration was varied within a range of 1-36 mM. […] The KM value for α-acetylamino cinnamic acid is 3.9 mM.

ACA acylase [7] = test: Dependency of ACA acylase activity on substrate concentration, coupled with D-2-hydroxy-4-methylpentanoic acid dehydrogenase (pH 7.5); assay type: biochemical, Brevibacterium spec.
Method: 0.1 M phosphate buffer (pH 7.5)
0.8 U D--2-hydroxy-4-methylpentanoic acid dehydrogenase
as §2
The α-acetylamino cinnamic acid concentration was varied within a range of 0.1-18 mM. […] The KM value for α-acetylamino cinnamic acid is at 0.45 mM.

[8] = reagent concentration 1 nM (so in the source), 0.1 M phosphate buffer pH 7.5, 30° C.
[9] = reagent concentration 10 nM (so in the source), 0.1 M phosphate buffer pH 7.5, 30° C.
[10] = bivalent metal ion, concentration 1 nM (so in the source), 0.1M tris/HCl buffer pH 8.0
[11] = bivalent metal ion, concentration 10 nM (so in the source), 0.1M tris/HCl buffer pH 8.0

- Activity (ACA acylase [1]): 0 mU.ml^-1
- Relative Activity (ACA acylase [1]): 0%
Compound: COC(=O)NC(Cc1ccccc1)C(=O)O (racemic) [N--methoxycarbonyl D,L--phenylalanine, N-methoxycarbonyl-D,L-phenylalanine]

- Influence on the enzyme (in words) (ACA acylase [2]; addition of 1 mmole): activates
- Residual Activity (ACA acylase [2]; [8]): 146%
- Residual Activity (ACA acylase [2]; [9]): 123%
Compound: O[C@H](CS)[C@H](O)CS (racemic) [dithiothreitol]

Compound: c1ccc(-c2ccccn2)nc1 [2,2-dipyridyl]
- Residual Activity (ACA acylase [2]; [8]): 97%
- Residual Activity (ACA acylase [2]; [9]): 69%

- Residual Activity (ACA acylase [2]; [8]): 100%
- Residual Activity (ACA acylase [2]; [9]): 100%
Compound: OCCS [2-mercaptoethanol]

Compound: [Ca+2].[Cl-].[Cl-] [CaCl2]
- Residual Activity (ACA acylase [2]; [10]): 99%
- Residual Activity (ACA acylase [2]; [11]): 99%

Compound: [Cl][Cd][Cl] [CdCl2]
- Residual Activity (ACA acylase [2]; [10]): 72%
- Residual Activity (ACA acylase [2]; [11]): 29%
- Influence on the enzyme (in words) (ACA acylase [2]; summary of properties): inhibiting action

- Residual Activity (ACA acylase [2]; [8]): 111%
- Residual Activity (ACA acylase [2]; [9]): 102%
Compound: O=C(O)CN(CCN(CC(=O)O)CC(=O)O)CC(=O)O [EDTA]

Compound: [Cl][Hg].[Cl][Hg] [Hg2 Cl2]
- Influence on the enzyme (in words) (ACA acylase [2]; summary of properties): inhibiting action

Compound: [Cl][Hg][Cl] [HgCl2]
- Residual Activity (ACA acylase [2]; [10]): 51%
- Residual Activity (ACA acylase [2]; [11]): 0%

Compound: [Cl-].[Cl-].[Mg+2] [MgCl2]
- Residual Activity (ACA acylase [2]; [10]): 100%
- Residual Activity (ACA acylase [2]; [11]): 100%

Compound: [Cl][Mn][Cl] [MnCl2]
- Residual Activity (ACA acylase [2]; [10]): 63%

- Activity (ACA acylase [1]): 0 mU.ml^-1
- Relative Activity (ACA acylase [1]): 0%
- Substrate specificity: hydrolysis by the enzyme (in words) (ACA acylase [1]; summary of properties): not
Compound: CC(=O)N[C@@H](Cc1ccccc1)C(=O)O [N--acetyl-L--phenylalanine, N-acetyl-L-phenylalanine]

Compound: [Cl][Ni][Cl] [NiCl2]
- Residual Activity (ACA acylase [2]; [10]): 83%
- Residual Activity (ACA acylase [2]; [11]): 53%

Compound: N[C@@H](Cc1ccccc1)C(=O)O [Phe, L-phenylalanine]
- solubility in H2 O [3]: 180000 µM (≈ 29.7 mg/mL)

Compound: [Cl-].[Cl-].[Zn+2] [ZnCl2]
- Residual Activity (ACA acylase [2]; [10]): 86%
- Residual Activity (ACA acylase [2]; [11]): 34%

- Residual Activity (ACA acylase [2]; [8]): 72%
- Residual Activity (ACA acylase [2]; [9]): 45%
- Influence on the enzyme (in words) (ACA acylase [2]; summary of properties): inhibiting action
Compound: c1cnc2c(c1)ccc1cccnc12 [o-phenanthroline]

- Residual Activity (ACA acylase [2]; [8]): 102%
- Residual Activity (ACA acylase [2]; [9]): 81%
Compound: N[C@@H](CCC(=O)N[C@@H](CS)C(=O)NCC(=O)O)C(=O)O [red. glutathione]

Compound: C=C(NC(C)=O)C(=O)O [α-acetylamino acrylic acid]
- Activity (ACA acylase [4]; 50 mM substrate, 0.1 U/ml ACA acylase, pH 8.0): 0 mU.ml^-1
- Relative Activity (ACA acylase [4]; relative to α-acetylamino cinnamic acid = 100%, 50 mM substrate, pH 8.0): 0%
- Substrate specificity: hydrolysis by the enzyme (in words) (ACA acylase [4]; summary of properties): not

Compound: CC(=O)NC(=Cc1ccccc1)C(=O)O [α-acetylamino cinnamic acid]
- Activity (ACA acylase [5]; 50 mM substrate, 0.1 U/ml ACA acylase, pH 9.2): 125 mU.ml^-1
- Substrate specificity: hydrolysis by the enzyme (in words) (ACA acylase [5]; summary of properties): hydrolyzes
- Relative Activity (ACA acylase [5]; α-acetylamino cinnamic acid set equal to 100%, 50 mM substrate, pH 9.2): 100%
- Km (ACA acylase [6]; pH 8.5, coupled with L-phenylalanine dehydrogenase): 3900 µM
- Substrate concentration at which the optimum reaction speed is achieved (ACA acylase [6]; pH 8.5, concentration varied 1-36 mM): 16 mM
- Km (ACA acylase [7]; pH 7.5): 450 µM
- Km (ACA acylase [7]; pH 7.5, coupled with D-2-hydroxy-4-methylpentanoic acid dehydrogenase): 450 µM
- Substrate concentration at which the optimum reaction speed is achieved (ACA acylase [7]; pH 7.5, concentration varied 0.1-18 mM): 5 mM

Compound: L--ala-L--his
- Activity (ACA acylase [1]): 43 mU.ml^-1
- Relative Activity (ACA acylase [1]): 34%

Compound: L--ala-L--phe
- Activity (ACA acylase [1]): 105 mU.ml^-1
- Relative Activity (ACA acylase [1]): 84%

Compound: L--ala-L--trp
- Activity (ACA acylase [1]): 66 mU.ml^-1
- Relative Activity (ACA acylase [1]): 53%

Compound: L--ala-L--tyr
- Activity (ACA acylase [1]): 78 mU.ml^-1
- Relative Activity (ACA acylase [1]): 62%

Compound: L--asp-L--phe
- Activity (ACA acylase [1]): 38 mU.ml^-1
- Relative Activity (ACA acylase [1]): 30%

Compound: L--his-L--phe
- Activity (ACA acylase [1]): 44 mU.ml^-1
- Relative Activity (ACA acylase [1]): 35%

Compound: L--leu-L--phe
- Activity (ACA acylase [1]): 102 mU.ml^-1
- Relative Activity (ACA acylase [1]): 82%

Compound: L--leu-L--trp
- Activity (ACA acylase [1]): 67 mU.ml^-1
- Relative Activity (ACA acylase [1]): 54%

Compound: L--leu-L--tyr
- Activity (ACA acylase [1]): 109 mU.ml^-1
- Relative Activity (ACA acylase [1]): 87%

Compound: L--phe-L--phe
- Activity (ACA acylase [1]): 41 mU.ml^-1
- Relative Activity (ACA acylase [1]): 33%

Compound: L--ser-L--phe
- Activity (ACA acylase [1]): 36 mU.ml^-1
- Relative Activity (ACA acylase [1]): 29%

Compound: gly-D-phe
- Activity (ACA acylase [1]): 0 mU.ml^-1
- Relative Activity (ACA acylase [1]): 0%

Compound: gly-L--phe
- Activity (ACA acylase [1]): 40 mU.ml^-1
- Relative Activity (ACA acylase [1]): 32%

Compound: gly-gly-L--phe
- Activity (ACA acylase [1]): 0 mU.ml^-1
- Relative Activity (ACA acylase [1]): 0%

Compound: p-mercuric benzoate
- Residual Activity (ACA acylase [2]; [8]): 41%
- Residual Activity (ACA acylase [2]; [9]): 3%
- Influence on the enzyme (in words) (ACA acylase [2]; summary of properties): inhibiting action
